# Starred links: 1 amine or outer side, 2 acyl side, 3 side chain; linkers in the order of their positions; H or OH if unused. Non-standard residues stand in square brackets, D forms with d. Residues, ends and D or L forms follow the SMILES beside them. ξ: configuration not given here. Glutaryl = O=C(CCCC(=O)[*:2])[*:1]; ξH = NC(Cc1c[nH]cn1)C(=O)O
# Tested on: human virus hRSV
# Experiment: Antiviral activity against mouse-adapted RS virus (body weight; viral titer in lungs titrated in Hep-2 cells)
# Type: in vivo, mice
# Conditions: day 5; 10% lung suspension titrated in Hep-2 cells (TCID); compounds 30 mg/kg, Ribavirin 40 mg/kg
# Description: Antiviral effectiveness of the chemical compounds against RSV in an experimental murine model in vivo was determined for human virus hRSV that was previously adapted to the growth in mouse lungs. The animals were infected with the virus at a dose of 0.5 log TCID50 intranasally under brief ether anesthesia in a volume of 0.05 ml/mouse. The studied compounds were administered orally once daily for 5 days according to the treatment regimen at a dose of 30 mg/kg. The first administration was made 24 hours after infection. Normal saline solution was administered to mice as placebo. Intact animals served as a negative control and were hold in a separate room under the same conditions as the experimental animals. Each experimental group comprised 12 animals.
# The antiviral activity of the studied compounds was determined by the efficiency in the prevention of weight loss and by suppression of the reproduction of hRSV in the mouse lungs by measuring a viral titer in the experimental groups relative to the control on days 5 and 7 after infection.
# In addition, the therapeutic action of the compounds of general formula I was determined by their ability to suppress the reproduction of hRSV in the mouse lungs on days 5 and 7 after infection. The viral titer was determined by the titration of a 10% lung suspension in Hep-2 cell culture. The result was registered 2 days after the incubation at 37° C. by TCID.
row,SMILES,"hRSV in the lungs of mice, Day 5, lg [lg]"
1,O=C(O)CCCC(=O)NCCC1=NCCN1 [Compound 3],3.04 ± 0.42
2,O=C(O)CCCC(=O)NCCC1CNC=N1 (stereo not drawn) [Compound 4],2.58 ± 0.51
3,CN(CCc1cnc[nH]1)C(=O)CCCC(=O)O [Compound 117],3.00 ± 0.41
4,O=C(O)CCCC(=O)NCCc1cc[nH]c1 [Compound 120],3.04 ± 0.47
5,O=C(O)CCCC(=O)NCCc1cncs1 [Compound 122],3.04 ± 0.44

# Same assay, conditions: day 5; compounds 30 mg/kg, Ribavirin 40 mg/kg, orally once daily for 5 days; n = 6
row,SMILES,Body weight of the mice on day 5 after infection with hRSV (M ± SD)
1,O=C(O)CCCC(=O)NCCC1=NCCN1 [Compound 3],16.65 ± 0.28
2,O=C(O)CCCC(=O)NCCC1CNC=N1 (stereo not drawn) [Compound 4],16.77 ± 0.20
3,O=C(O)CCCC(=O)NCCC1CNCCN1 (stereo not drawn) [Compound 8],15.18 ± 0.18
4,O=C(O)CCCC(=O)NCCC1CNCCO1 (stereo not drawn) [Compound 9],15.75 ± 0.33
5,O=C(O)CCCC(=O)NCCC1COCCN1 (stereo not drawn) [Compound 10],16.18 ± 0.29
6,CN(CCc1cnc[nH]1)C(=O)CCCC(=O)O [Compound 117],16.07 ± 0.12
7,O=C(O)CCCC(=O)NCCc1cc[nH]c1 [Compound 120],16.12 ± 0.27
8,O=C(O)CCCC(=O)NCCc1cncs1 [Compound 122],16.93 ± 0.32

# Same assay, conditions: day 7; 10% lung suspension titrated in Hep-2 cells (TCID); compounds 30 mg/kg, Ribavirin 40 mg/kg
row,SMILES,"hRSV in the lungs of mice, Day 7, lg [lg]"
1,O=C(O)CCCC(=O)NCCC1=NCCN1 [Compound 3],1.46 ± 0.17
2,O=C(O)CCCC(=O)NCCC1CNC=N1 (stereo not drawn) [Compound 4],1.38 ± 0.24
3,CN(CCc1cnc[nH]1)C(=O)CCCC(=O)O [Compound 117],1.46 ± 0.24
4,O=C(O)CCCC(=O)NCCc1cc[nH]c1 [Compound 120],1.50 ± 0.25
5,O=C(O)CCCC(=O)NCCc1cncs1 [Compound 122],1.75 ± 0.41

# Same assay, conditions: day 7; compounds 30 mg/kg, Ribavirin 40 mg/kg, orally once daily for 5 days; n = 6
row,SMILES,Body weight of the mice on day 7 after infection with hRSV (M ± SD)
1,O=C(O)CCCC(=O)NCCC1=NCCN1 [Compound 3],17.32 ± 0.25
2,O=C(O)CCCC(=O)NCCC1CNC=N1 (stereo not drawn) [Compound 4],17.08 ± 0.32
3,O=C(O)CCCC(=O)NCCC1CNCCN1 (stereo not drawn) [Compound 8],17.13 ± 0.27
4,O=C(O)CCCC(=O)NCCC1CNCCO1 (stereo not drawn) [Compound 9],16.18 ± 0.29
5,O=C(O)CCCC(=O)NCCC1COCCN1 (stereo not drawn) [Compound 10],16.53 ± 0.20
6,CN(CCc1cnc[nH]1)C(=O)CCCC(=O)O [Compound 117],16.48 ± 0.28
7,O=C(O)CCCC(=O)NCCc1cc[nH]c1 [Compound 120],17.22 ± 0.20
8,O=C(O)CCCC(=O)NCCc1cncs1 [Compound 122],16.37 ± 0.21

# Same assay, conditions: human respiratory syncytial virus, HEp-2, po, 120 h, read-out: Suppression of the reproduction of hRSV in the lungs of mice, Day 5, Δlg
row,SMILES,log reduction at 30 mg/kg
1,O=C(O)CCCC(=O)NCCC1=NCCN1 [Compound 3],1.56 ± 0.42
2,O=C(O)CCCC(=O)NCCC1CNC=N1 (stereo not drawn) [Compound 4],2.02 ± 0.51
3,CN(CCc1cnc[nH]1)C(=O)CCCC(=O)O [Compound 117],1.6 ± 0.41
4,O=C(O)CCCC(=O)NCCc1cc[nH]c1 [Compound 120],1.56 ± 0.47
5,O=C(O)CCCC(=O)NCCc1cncs1 [Compound 122],1.56 ± 0.44

# Same assay, conditions: human respiratory syncytial virus, HEp-2, po, 168 h, read-out: Suppression of the reproduction of hRSV in the lungs of mice, Day 7, Δlg
row,SMILES,log reduction at 30 mg/kg
1,O=C(O)CCCC(=O)NCCC1=NCCN1 [Compound 3],2.18 ± 0.28
2,O=C(O)CCCC(=O)NCCC1CNC=N1 (stereo not drawn) [Compound 4],2.58 ± 0.53
3,CN(CCc1cnc[nH]1)C(=O)CCCC(=O)O [Compound 117],2.22 ± 0.34
4,O=C(O)CCCC(=O)NCCc1cc[nH]c1 [Compound 120],2.05 ± 0.25
5,O=C(O)CCCC(=O)NCCc1cncs1 [Compound 122],1.88 ± 0.47

# Tested on: human respiratory syncytial virus (strain A2)
# Experiment: Antiviral activity against RS virus in a murine model of suppressed immune system (lung edema)
# Type: in vivo
# Conditions: Balb/c mice, cyclophosphan-suppressed, RS-virus pneumonia; 30 mg/kg once daily for 5 days; M ± SD, n = 5; scores from possible 4
# Description: Antiviral activity of the chemical compounds against human respiratory syncytial virus (strain A2, an infectious titer of 5×10^6 TCID50/mL) was assessed in a Balb/c murine model of viral pneumonia. The virus was inoculated to animals intranasally in a volume of 50 μL under brief ether anesthesia. The immune response in animals to RS virus was suppressed by intraperitoneal administration of cyclophosphan at a dose of 100 mg/kg 5 days before infection. The studied compounds were administered according to the treatment regimen once daily at a dose of 30 mg/kg for 5 days, starting 24 hours after infection. The activity of the compounds was determined by a reduction in edema of the lung infected with respiratory syncytial virus, compared to the control, on day 5 after infection.
row,SMILES,"Degree of lung edema on day 5 after infection, score [score]"
1,O=C(O)CCCC(=O)NCCC1=NCCN1 [Compound 3],1.6 ± 0.89
2,O=C(O)CCCC(=O)NCCC1CNC=N1 (stereo not drawn) [Compound 4],1.95 ± 0.31
3,O=C(O)CCCC(=O)NCCC1CNCCO1 (stereo not drawn) [Compound 9],1.00 ± 0.17
4,COC(=O)C(C)NC(=O)C(Cc1cnc[nH]1)NC(=O)CCCC(=O)O (stereo not drawn) [Compound 91],0.40 ± 0.11
5,NC(=O)C(CO)NC(=O)C(Cc1cnc[nH]1)NC(=O)CCCC(=O)O (stereo not drawn) [Compound 96] (Glutaryl-His-Ser-NH2; configuration not given here),0.35 ± 0.11
6,O=C(O)CCCC(=O)NCCc1cc[nH]c1 [Compound 120],1.05 ± 0.14
7,O=C(O)CCCC(=O)NCCc1cn2ccccc2n1 [Compound 139],1.75 ± 0.77
8,COC(=O)C(NC(=O)C(Cc1cnc[nH]1)NC(=O)CCCC(=O)O)C(C)O (stereo not drawn) [Compound 148] (Glutaryl-His-Thr-OMe; configuration not given here),2.00 ± 0.31
9,NC(=O)CNC(=O)C(Cc1c[nH]cn1)NC(=O)CCCC(=O)O (stereo not drawn) [Compound 184] (Glutaryl-[ξH]-Gly-NH2),1.00 ± 0.19

# Reference: US20170183318A1, “AMIDE COMPOUNDS, METHODS FOR PREPARATION, AND USE THEREOF AS AGENTS FOR THE TREATMENT AND PREVENTION OF DISEASES CAUSED BY RNA- AND/OR DNA-CONTAINING VIRUSES, AND CONCOMITANT DISEASES” (OBSCHESTVO S OGRANICHENNOI OTVETSTVENNOSTIYU …, priority 2014, published 2017)
